Like-named read-outs stand apart in the source and are kept apart here.
Key:
[1] = Passive membrane permeability through PAMPA artificial membrane, pH 7.4; assay type: in vitro ADME; conditions: pH 7.4, 10 μmol, 20 hours at room temperature, mean of multiple measurements, read-out: PAMPA passive permeability Pe
Summary of the method: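 Compound at 10 μmol in 0.01 M phosphate buffer pH 7.4 placed in donor wells over lecithin-phospholipid-impregnated PVDF filter, buffer in acceptor; 20 h at room temperature. Donor and acceptor levels measured by RP-HPLC-UV; Pe (cm/s) and membrane retention R (%) calculated.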

[2] = target: CDK7/Cyclin H/MNAT1 (Homo sapiens, UniProt P50613); assay: Inhibition of CDK7/Cyclin H/MNAT1 kinase activity (ADP-Glo); assay type: biochemical
Summary of the method: (§1)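 Kinase preincubated with compound (11 points, 4-fold steps from 50 μM) for 10 minutes at 25° C. in kinase buffer A with DTT, then reacted 40-60 minutes at 25° C. with ATP and CDKtide, Histone H1 or PDKtide substrate. ADP formation read by ADP-Glo luminescence; IC50 from four-parameter fit.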

[3] = Microsomal stability in mouse liver microsomes (MLM); assay type: in vitro ADME; conditions: mouse liver microsomes 0.5 mg/ml, 1 μM compound, NADPH
Procedure: The procedure for investigating the metabolism of selected compounds was carried out in microsomal fractions of the liver (of rats, mice, humans) in the presence of a phase I metabolism cofactor (NADPH).
The rate of enzymatic decomposition of the compound in liver microsomes in in vitro analysis was determined by keeping a reaction mixture comprising 0.5 mg/ml of pooled human, rat or mouse liver microsomes, 1 μM test compound, 1.5 mM […] (Carbosynth, UK, cat. no. NN108711101) and 1.5 mM magnesium chloride in 0.1 M sodium phosphate buffer (pH 7.4) in a solid-state thermostat at 37° C. (XenoTech, USA, order no. H2610, cat. no. R1000, cat. no. M1000). Incubation was carried out in three replicates.
To determine the stability of compounds under sample preparation conditions, an aliquot in two replicates with the test compound and a microsomal fraction devoid of the NADPH cofactor, which was incubated for 40 minutes at 37° C.
Reactions were stopped at 0, 10, 20, 30 and 40 min time points by way of adding an ice mixture of acetonitrile:methanol (3:1) comprising an internal standard.
Samples were then centrifuged to remove the precipitated protein, supernatants were analyzed using HPLC-MS/MS to determine in vitro clearance (CLint) of the compounds. The Agilent 6410 mass spectrometer (Agilent, USA) combined with the Agilent 1260 Infinity II HPLC liquid chromatograph (Agilent, USA) and a cooling autosampler controlled by MassHunter software (Agilent, USA) was used as an HPLC-MS/MS system. Chromatographic analysis was performed on a C18 reversed-phase HPLC column (Agilent, Waters or equivalent) in a gradient elution mode in a system of mobile phases: 0.1% formic acid in water/0.1% formic acid in acetonitrile, flow rate: 0.5 ml/min, column T=35° C. Mass spectrometric detection was performed with electrospray ionization in multiple reaction monitoring mode. Precursor ions, fragment ions and collision energies for each substance were selected experimentally.
A graph of dependence of the logarithmic ratio between substance's peak area and internal standard's peak area vs time was built. The dependent coefficient of this line corresponded to the elimination rate constant k, on the basis of which the in vitro clearance CLint was calculated:
Based on resulting in vitro clearance CLint values, the microsomal stability of the selected compounds for humans, rats and mice was concluded.

[4] = target: CDK9/Cyclin K (Homo sapiens, UniProt P50750); assay: Inhibition of CDK9/Cyclin K kinase activity (ADP-Glo); assay type: biochemical
Summary of the method: as §1

[5] = General cytotoxicity on primary differentiated HepaRG cells (72 h); assay type: cell-based; conditions: human, general toxicity, mean value from several measurements
Summary of the method: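 Differentiated HepaRG cells, maintained a week in basal hepatic medium with maintenance/metabolism supplement, were plated at 25×10^3 cells/well overnight. Compounds (200 μM to 0.2 nM) were added for 72 h before viability readout.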

[6] = mean of multiple measurement series, ATP 10 μM, read-out: CDK7/Cyclin H/MNAT1 IC50
[7] = mean value from several measurements, read-out: IC50 CDK7/Cyclin H/MNAT
[8] = mean of multiple measurement series, ATP 50 μM, read-out: CDK9/Cyclin K IC50
[9] = mean value from several measurements, read-out: IC50 CDK9/Cyclin K

CDK9/Cyclin K, sequence (P50750 whole entry): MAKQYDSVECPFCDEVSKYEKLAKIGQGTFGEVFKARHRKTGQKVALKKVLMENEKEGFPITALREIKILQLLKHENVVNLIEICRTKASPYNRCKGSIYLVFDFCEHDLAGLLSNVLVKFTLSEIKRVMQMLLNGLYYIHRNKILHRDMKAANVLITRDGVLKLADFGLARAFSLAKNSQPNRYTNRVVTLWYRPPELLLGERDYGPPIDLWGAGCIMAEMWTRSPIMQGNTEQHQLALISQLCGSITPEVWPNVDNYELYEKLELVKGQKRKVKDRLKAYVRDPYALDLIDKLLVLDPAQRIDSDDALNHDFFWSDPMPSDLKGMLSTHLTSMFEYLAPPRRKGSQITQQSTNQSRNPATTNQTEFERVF
CDK9/Cyclin K, sequence (O75909 whole entry partner): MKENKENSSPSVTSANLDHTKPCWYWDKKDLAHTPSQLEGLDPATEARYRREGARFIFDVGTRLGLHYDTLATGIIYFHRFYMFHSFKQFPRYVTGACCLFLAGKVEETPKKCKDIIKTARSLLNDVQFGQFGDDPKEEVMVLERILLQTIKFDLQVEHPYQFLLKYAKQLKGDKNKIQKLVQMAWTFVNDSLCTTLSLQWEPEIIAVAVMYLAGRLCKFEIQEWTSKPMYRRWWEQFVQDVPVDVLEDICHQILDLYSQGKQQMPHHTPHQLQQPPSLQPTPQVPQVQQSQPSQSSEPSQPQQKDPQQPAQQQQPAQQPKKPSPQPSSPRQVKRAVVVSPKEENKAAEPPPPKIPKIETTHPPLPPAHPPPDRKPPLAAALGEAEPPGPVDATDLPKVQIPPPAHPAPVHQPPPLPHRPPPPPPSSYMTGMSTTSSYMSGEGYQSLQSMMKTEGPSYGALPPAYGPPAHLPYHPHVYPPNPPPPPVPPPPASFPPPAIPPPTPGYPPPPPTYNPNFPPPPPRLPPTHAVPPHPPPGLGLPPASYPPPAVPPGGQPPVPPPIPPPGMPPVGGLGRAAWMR
CDK7/Cyclin H/MNAT1, sequence (P50613 whole entry): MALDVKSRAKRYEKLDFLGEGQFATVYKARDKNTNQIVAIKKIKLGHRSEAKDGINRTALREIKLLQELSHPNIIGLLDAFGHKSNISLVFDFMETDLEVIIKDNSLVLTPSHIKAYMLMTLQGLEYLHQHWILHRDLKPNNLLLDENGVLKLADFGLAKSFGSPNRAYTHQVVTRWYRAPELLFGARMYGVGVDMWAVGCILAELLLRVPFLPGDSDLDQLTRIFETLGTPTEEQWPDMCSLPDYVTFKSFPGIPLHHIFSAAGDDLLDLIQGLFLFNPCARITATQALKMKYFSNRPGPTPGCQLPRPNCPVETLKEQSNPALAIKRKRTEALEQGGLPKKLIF
CDK7/Cyclin H/MNAT1, sequence (P51946 whole entry partner): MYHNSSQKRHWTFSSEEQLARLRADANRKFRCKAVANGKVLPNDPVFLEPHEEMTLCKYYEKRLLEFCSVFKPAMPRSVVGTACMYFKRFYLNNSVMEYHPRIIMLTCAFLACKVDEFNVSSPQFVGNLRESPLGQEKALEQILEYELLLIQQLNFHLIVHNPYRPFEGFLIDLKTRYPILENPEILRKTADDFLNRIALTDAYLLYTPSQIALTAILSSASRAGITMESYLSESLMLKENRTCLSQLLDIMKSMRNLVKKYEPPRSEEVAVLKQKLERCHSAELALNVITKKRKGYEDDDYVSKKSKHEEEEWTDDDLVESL
CDK7/Cyclin H/MNAT1, sequence (P51948 whole entry partner): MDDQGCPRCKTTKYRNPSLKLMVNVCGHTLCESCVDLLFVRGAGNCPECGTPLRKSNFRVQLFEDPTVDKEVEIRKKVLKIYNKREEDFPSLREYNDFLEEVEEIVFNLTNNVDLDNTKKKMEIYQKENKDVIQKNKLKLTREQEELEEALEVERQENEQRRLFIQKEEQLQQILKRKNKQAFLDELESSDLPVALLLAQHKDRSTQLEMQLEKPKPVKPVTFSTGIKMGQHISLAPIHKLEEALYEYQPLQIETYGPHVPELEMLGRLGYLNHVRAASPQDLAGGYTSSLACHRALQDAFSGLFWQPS

Row | SMILES | Papp at 20 h, 10 μmol [1] | IC50 [2, 6] | IC50 [2, 7] | MLM Clint [3] | IC50 [4, 8] | IC50 [4, 9] | CC50 at 72 h [5]
1 | Cn1cc(N2CCCc3c(-c4nc(N[C@H]5CCCNC5)ncc4C(F)(F)F)c[nH]c3C2=O)cn1 [CDK7_955, 7-(1-methyl-1H-pyrazol-4-yl)-3-(2-{[(3S)-piperidin-3-yl]amino}-5-(trifluoromethyl)py-rimidin-4-yl)-1H,4H,5H,6H,7H, 8H-pyrrolo[2,3-c]azepin-8-one] | < 10 nm/s |  | 0.005 to 0.05 µM |  |  | > 0.2 µM | > 2 µM
2 | Cn1cc(N2CCCc3c(-c4nc(N[C@H]5CCC(C)(C)NC5)ncc4C(F)(F)F)c[nH]c3C2=O)cn1 [CDK7_1122, 3-(2-{[(3S)-6,6-dimethylpiperidin-3-yl]amino}-5-(trifluoromethyl)py-rimidin-4-yl)-7-(1-methyl-1H-pyrazol-4-yl)-1H,4H,5H,6H,7H, 8H-pyrrolo[2,3-c]azepin-8-one] | 10 to 50 nm/s |  | 0.005 to 0.05 µM |  |  | > 0.2 µM | > 2 µM
3 | Cn1cc(-n2ccc3c(-c4nc(N[C@H]5CCC(C)(C)NC5)ncc4C(F)(F)F)c[nH]c3c2=O)cn1 [CDK7_1123, 3-(2-{[(3S)-6,6-dimethylpiperidin-3-yl]amino}-5-(trifluoromethyl)py-rimidin-4-yl)-6-(1-methyl-1H-pyrazol-4-yl)-1H,6H,7H-pyrrolo[2,3-c]pyridin-7-one] | < 10 nm/s | < 0.005 µM | < 0.005 µM |  | 0.265 µM | > 0.2 µM | > 2 µM
4 | O=C1c2[nH]cc(-c3nc(NC4CCCNC4)ncc3C(F)(F)F)c2CCCN1c1nccs1 (stereo not shown) [CDK7_1172] | 10 to 50 nm/s |  | < 0.005 µM |  |  | > 0.2 µM | > 2 µM
5 | O=C1c2[nH]cc(-c3nc(N[C@H]4CCCNC4)ncc3C(F)(F)F)c2CCCN1c1ccccn1 [CDK7_1176, 3-(2-{[(3S)-piperidin-3-yl]amino}-5-(trifluoromethyl)py-rimidin-4-yl)-7-(pyridin-2-yl)-1H,4H,5H,6H,7H, 8H-pyrrolo[2,3-c]azepin-8-one] | 10 to 50 nm/s |  | 0.005 to 0.05 µM |  |  |  | > 2 µM

The next lines start with results.

Row | Papp at 20 h, 10 μmol [1] | IC50 [2, 6] | IC50 [2, 7] | MLM Clint [3] | IC50 [4, 8] | IC50 [4, 9] | SMILES | CC50 at 72 h [5]
6 | 10 to 50 nm/s | < 0.005 µM | < 0.005 µM | A (Clint < 20 μl/(min · mg of protein)) | 0.06 µM | 0.05 to 0.2 µM | CN1CCCc2c(-c3nc(N[C@H]4CCCNC4)ncc3C(F)(F)F)c[nH]c2C1=O [CDK7_953, 7-methyl-3-(2-{[(3S)-piperidin-3-yl]amino}-5-(trifluoromethyl)py-rimidin-4-yl)-1H,4H,5H,6H,7H, 8H-pyrrolo[2,3-c]azepin-8-one] | 0.5 to 2 µM
7 | < 10 nm/s | < 0.005 µM | < 0.005 µM |  | 0.106 µM | 0.05 to 0.2 µM | Cn1cc(-n2ccc3c(-c4nc(N[C@H]5CCCNC5)ncc4C(F)(F)F)c[nH]c3c2=O)cn1 [CDK7_959, 6-(1-methyl-1H-pyrazol-4-yl)-3-(2-{[(3S)-piperidin-3-yl]amino}-5-(trifluoromethyl)py-rimidin-4-yl)-1H,6H,7H-pyrrolo[2,3-c]pyridin-7-one] | > 2 µM
8 | 10 to 50 nm/s | < 0.005 µM | < 0.005 µM |  | 0.069 µM | 0.05 to 0.2 µM | O=c1c2[nH]cc(-c3nc(N[C@H]4CCCNC4)ncc3C(F)(F)F)c2ccn1Cc1ccccc1 [CDK7_961, 6-benzyl-3-(2-{[(3S)-piperidin-3-yl]amino}-5-(trifluoromethyl)py-rimidin-4-yl)-1H,6H,7H-pyrrolo[2,3-c]pyridin-7-one] | 0.1 to 0.5 µM

Source: US20260137698A1, “CYCLIN-DEPENDENT KINASE 7 INHIBITORS” (JOINT STOCK COMPANY «BIOCAD», priority 2022, published 2026)
